Results taken from US10183063B2, “Injection composition comprising hyaluronidase for removal of topical fat” (priority 2016, dated 2019).

Columns and labels:
topical fat = format: in vivo, human
Source text: In order to find the optimal doses of hyaluronidase facilitating lipolysis, the present inventor conducted experiments with hyaluronidase unit doses of 10 IU, 50 IU, 100 IU, 150 IU, 200 IU, 250 IU, 300 IU, 350 IU, 400 IU, 450 IU, 500 IU, 550 IU, 600 IU, 650 IU, 700 IU, 750 IU, 800 IU, 850 IU, 900 IU, 950 IU, 1000 IU, 1050 IU, 1100 IU, 1150 IU, 1200 IU, 1250 IU, 1300 IU, 1350 IU, 1400 IU, 1450 IU, and 1500 IU.
It was shown in clinical trials that at the above dose range, if the injection composition is administered in a volume of 1 cc containing 300 IU of hyaluronidase, the diameter of the diffusion range is about 1 cm. Thus, with the hyaluronidase dose set at 300 IU to 600 IU, by injecting the composition at a volume of 0.5 to 2 cc depending on the hyaluronidase dose and at injection points with an interval of 0.5 to 1.5 cm between the injection points, injection at narrow intervals is possible and consequently, lipolysis occurs evenly. Furthermore, a lifting effect occurs concomitantly where skin resilience is improved by the promotion of collagen production through stimulation of the skin by the injection needle.
Thus, by administering an injection composition of the present invention having the above compositional ranges, the side effects from using the drugs are minimized and fat removal over a wide area can be carried out using a minimal volume.
It was shown in clinical trials that at a hyaluronidase of 300 IU, the diameter of the diffusion range for the injection composition is about 1 cm. Thus, by injecting the composition at narrow intervals between injection points of 0.5 to 2 cm, even fat removal as well as collagen production by skin stimulation can be facilitated.

Compound | time until the onset of action for the local anesthetic effect, later compared to lidocaine | Lipolysis (topical fat; unit dose 300 IU or below) | Fat removal (topical fat; unit dose above 600 IU) | Fat removal effect and side effects (topical fat; unit dose of 300 IU to 600 IU) | minimum amount of hyaluronidase exhibiting efficacy (topical fat; unit dose per injection) [IU]
CCN(CC)CCOC(=O)c1ccc(N)cc1 [procaine] | more than 10 minutes | – | – | – | –
hyaluronidase | – | sufficient lipolysis did not occur | excellent effects were obtained in terms of fat removal | possible to ensure the fat removal effect while minimizing side effects | 300
